Our source for the Activity and CC50 values is ChEMBL document CHEMBL1151643, “The Identification of a Major Phytotoxic Component from Alternaria macrospora as -Dehydrocurvularin” (J Nat Prod, 1985).

In brackets after ≈: the same amount, converted by molar mass.

Common to all, as to assay type: organism-based
Data set [1] has as its system Gossypium hirsutum. Kind of data set: Phytotoxicity against Gossypium hirsutum assessed as appearance of lesions at 0.5 ug applied to adaxial surface of leaf for 12 hrs measured after 4 days. The following applies: in vivo, topical_or_ocular.
Data set [2] concerns Gossypium hirsutum. Description: Phytotoxicity against Gossypium hirsutum assessed as appearance of lesions at 10 ug applied to adaxial surface of leaf for 12 hrs measured after 16 hrs. The following applies: in vivo, topical_or_ocular.
Data set [3] is described as follows: Phytotoxicity against Cucumis sativus protoplast after 3 hrs by fluorescein diacetate staining. The following applies: Cucumis sativus protoplasts, read-out: LD50.

Take `CC1CCC/C=C/C(=O)c2c(O)cc(O)cc2CC(=O)O1` (centres undefined): the Activity result with Gossypium hirsutum [1] and with Gossypium hirsutum [2] was “Toxic” throughout. Also, in data set [3], the CC50 at 3 h stood at 15 µg/mL (≈ 51.7 µM).

For `CC1CCCCCC(=O)c2c(O)cc(O)cc2CC(=O)O1` (centres undefined) [CURVULARIN], the CC50 at 3 h in data set [3] came to 21 µg/mL (≈ 71.8 µM).
